Where a name gives a salt, the structure may show the parent alone.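 Following 48 hours of exposure in 96-well plates, responses at five concentrations were used to interpolate endpoints linearly. GI50 marks 50% less growth.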 Active and inactive are the calls of the source. Cut-off read from the data, not from the text of the source: active = GI50 up to about 1.1 µM and inactive = higher. Non-standard residues stand in square brackets, D forms with d. Residues, ends and D or L forms follow the SMILES beside them. ξ: configuration not given here. *: point of attachment. dThr(3ξ) = CC(O)[C@@H](N)C(=O)O; dNMeL = CN[C@H](CC(C)C)C(=O)O; OBn = c1ccc(CO*)cc1; ξLac = CC(O)C(=O)O
Tests used:
Assay in all cases: NCI-60 cell line screen, 48 h
A498 = test system: A498
HOP-62 = test system: HOP-62
TK-10 = test system: TK-10
NCI-H226 = test system: NCI-H226
HCT-15 = test system: HCT-15
KM12 = test system: KM12
Malme-3M = test system: Malme-3M
UACC-62 = test system: UACC-62
OVCAR-3 = test system: OVCAR-3
UACC-257 = test system: UACC-257
NCI/ADR-RES = test system: NCI/ADR-RES
LOX IMVI = test system: LOX IMVI
RPMI-8226 = test system: RPMI-8226
SK-OV-3 = test system: SK-OV-3
MDA-MB-435 = test system: MDA-MB-435
BT-549 = test system: BT-549
786-0 = test system: 786-0
CAKI-1 = test system: CAKI-1
PC-3 = test system: PC-3

SMILES	GI50 (A498)	GI50 (HOP-62)	GI50 (TK-10)	GI50 (NCI-H226)	GI50 (HCT-15) [µM]	GI50 (KM12)	GI50 (Malme-3M)	GI50 (UACC-62)	GI50 (OVCAR-3)	GI50 (UACC-257)	GI50 (NCI/ADR-RES)	GI50 (LOX IMVI)	GI50 (RPMI-8226)	GI50 (SK-OV-3)	GI50 (MDA-MB-435)	GI50 (BT-549)	GI50 (786-0)	GI50 (CAKI-1)	GI50 (PC-3)
CCOP(=O)(OCC)C(F)(F)CC1CCCCC1	> 10 µM (inactive)	> 10 µM (inactive)	> 10 µM (inactive)	> 10 µM (inactive)	> 10	> 10 µM (inactive)	> 10 µM (inactive)	> 10 µM (inactive)	> 10 µM (inactive)	> 10 µM (inactive)	> 10 µM (inactive)	> 10 µM (inactive)	> 10 µM (inactive)	> 10 µM (inactive)	> 10 µM (inactive)	> 10 µM (inactive)	> 10 µM (inactive)	> 10 µM (inactive)	> 10 µM (inactive)
COc1ccc(N(CC(=O)O)N=O)cc1	> 100 µM (inactive)	> 100 µM (inactive)	> 100 µM (inactive)	> 100 µM (inactive)	> 100	> 100 µM (inactive)	> 100 µM (inactive)	> 100 µM (inactive)	> 100 µM (inactive)	> 100 µM (inactive)	> 100 µM (inactive)	> 100 µM (inactive)	> 100 µM (inactive)	> 100 µM (inactive)	> 100 µM (inactive)	> 100 µM (inactive)	> 100 µM (inactive)	> 100 µM (inactive)	> 100 µM (inactive)
CCOC(=O)c1sc2nc(SC)nc3c2c1NCN3c1ccccc1Cl	37.8 µM (inactive)	40.9 µM (inactive)	37.8 µM (inactive)	> 100 µM (inactive)	71.1	> 100 µM (inactive)	31.8 µM (inactive)	37.4 µM (inactive)	84.5 µM (inactive)	48.8 µM (inactive)	40.2 µM (inactive)	35.6 µM (inactive)	> 100 µM (inactive)	56.6 µM (inactive)	> 100 µM (inactive)	42.7 µM (inactive)	24.3 µM (inactive)	50.8 µM (inactive)	29.4 µM (inactive)
O=[N+]([O-])c1ccc(/C=N/n2c(CO)nc3ccccc32)o1	17.9 µM (inactive)	11.9 µM (inactive)	6.55 µM (inactive)	15.1 µM (inactive)	2.84	3.11 µM (inactive)	2.16 µM (inactive)	7.52 µM (inactive)	2.22 µM (inactive)	2.44 µM (inactive)	15.7 µM (inactive)	2.92 µM (inactive)	3.43 µM (inactive)	18.2 µM (inactive)	3.4 µM (inactive)	13.6 µM (inactive)	4.04 µM (inactive)	9.68 µM (inactive)	10.2 µM (inactive)
O=C1c2ccccc2C(=O)c2c(NCC3CO3)ccc(NCC3CO3)c21 (configuration not stated)	33.3 µM (inactive)	1.55 µM (inactive)	19 µM (inactive)	8.59 µM (inactive)	3.47	3.85 µM (inactive)	5.3 µM (inactive)	1.08 µM (active)	4.54 µM (inactive)	7.08 µM (inactive)	1.6 µM (inactive)	0.0132 µM (active)	2.76 µM (inactive)	10.4 µM (inactive)	1.22 µM (inactive)	3.15 µM (inactive)	0.766 µM (active)	0.687 µM (active)	1.91 µM (inactive)
COc1ccc2c(c1)CC[C@@H]1[C@@H]2CC[C@]2(C)C(=O)/C(=C/c3ccc(C#N)cc3)C[C@@H]12	> 100 µM (inactive)	97.1 µM (inactive)	> 100 µM (inactive)	> 100 µM (inactive)	> 100	> 100 µM (inactive)	> 100 µM (inactive)	> 100 µM (inactive)		> 100 µM (inactive)	> 100 µM (inactive)	> 100 µM (inactive)	> 100 µM (inactive)	> 100 µM (inactive)	> 100 µM (inactive)	> 100 µM (inactive)	> 100 µM (inactive)	> 100 µM (inactive)	> 100 µM (inactive)
C[C@@]12C=CC3C/C(=N\C(N)=S)C=C(CCCC4OCCO4)[C@]3(CC1)C2 (some centres not stated)	15.5 µM (inactive)	29.5 µM (inactive)	20.6 µM (inactive)	23.3 µM (inactive)	17.7	23.6 µM (inactive)	18.4 µM (inactive)	16.2 µM (inactive)	15.2 µM (inactive)	18.8 µM (inactive)	15.8 µM (inactive)	17.4 µM (inactive)	16.2 µM (inactive)	49.2 µM (inactive)	16.9 µM (inactive)	16.9 µM (inactive)	19.3 µM (inactive)	25.1 µM (inactive)	17.4 µM (inactive)
Nc1ccc(-c2nc3cc(F)ccc3s2)cc1I	15.8 µM (inactive)	10.2 µM (inactive)	0.0351 µM (active)	0.979 µM (active)	1.34	14.7 µM (inactive)	26.1 µM (inactive)	19.6 µM (inactive)	0.255 µM (active)	49.3 µM (inactive)	18.8 µM (inactive)	39.5 µM (inactive)	> 100 µM (inactive)	14.4 µM (inactive)	> 80.9 µM (inactive)	13.5 µM (inactive)	16.2 µM (inactive)	15.6 µM (inactive)	24.2 µM (inactive)
COc1ccc(C(F)(F)F)cc1NC(=O)O/N=C(/Cl)C(C)C	28.9 µM (inactive)	21.6 µM (inactive)	15.1 µM (inactive)	17.7 µM (inactive)	5.18	26.3 µM (inactive)	9.62 µM (inactive)	18.5 µM (inactive)	19.3 µM (inactive)	19.7 µM (inactive)	23.6 µM (inactive)	5.27 µM (inactive)	1.71 µM (inactive)	> 47.5 µM (inactive)	20.8 µM (inactive)	20.7 µM (inactive)	16.9 µM (inactive)	1.77 µM (inactive)	18.8 µM (inactive)
CCOC(=O)/C(C(=O)Nc1ccc(F)cc1)=C(/N)N1CCOCC1	> 100 µM (inactive)	> 100 µM (inactive)	> 100 µM (inactive)	> 100 µM (inactive)	> 100	> 100 µM (inactive)	> 100 µM (inactive)	> 100 µM (inactive)	> 100 µM (inactive)	> 100 µM (inactive)	> 100 µM (inactive)	> 100 µM (inactive)	> 100 µM (inactive)	> 100 µM (inactive)	> 100 µM (inactive)	> 100 µM (inactive)	> 100 µM (inactive)	> 100 µM (inactive)	> 100 µM (inactive)
CC(C)NC(=O)OCc1c(COC(=O)NC(C)C)n(C)c2c1ccc1ccsc12	9.73 µM (inactive)	12.7 µM (inactive)	22.2 µM (inactive)	7.41 µM (inactive)	9.25	15.3 µM (inactive)	4.36 µM (inactive)	6.9 µM (inactive)	13.9 µM (inactive)	13.5 µM (inactive)	6.75 µM (inactive)	5.57 µM (inactive)	2.94 µM (inactive)	16.2 µM (inactive)	7.35 µM (inactive)	7.16 µM (inactive)	6.46 µM (inactive)	1.81 µM (inactive)	15.3 µM (inactive)
CC(=O)OC(C)[C@@H](NC(=O)[C@@H](CC(C)C)N(C)C(=O)[C@@H]1CCCN1C(=O)C(C)O)C(=O)OCc1ccccc1 (some centres not stated) (H-[ξLac]P[dNMeL][dThr(3ξ)](Ac)-OBn)	> 100 µM (inactive)	> 100 µM (inactive)	> 100 µM (inactive)	> 100 µM (inactive)	> 100	> 100 µM (inactive)	> 100 µM (inactive)	> 100 µM (inactive)	> 100 µM (inactive)	> 100 µM (inactive)	> 100 µM (inactive)	> 100 µM (inactive)	> 100 µM (inactive)	> 100 µM (inactive)	> 100 µM (inactive)	> 100 µM (inactive)	> 100 µM (inactive)	> 100 µM (inactive)	> 100 µM (inactive)
OC(CNc1ccccn1)c1ccccc1 (configuration not stated) [PHENYRAMIDOL HYDROCHLORIDE]	> 100 µM (inactive)	> 100 µM (inactive)	> 100 µM (inactive)	> 100 µM (inactive)	> 100	> 100 µM (inactive)	> 100 µM (inactive)	> 100 µM (inactive)	> 100 µM (inactive)	> 100 µM (inactive)	> 100 µM (inactive)	> 100 µM (inactive)	90.2 µM (inactive)	> 100 µM (inactive)	> 100 µM (inactive)	> 100 µM (inactive)	> 100 µM (inactive)	> 100 µM (inactive)	> 100 µM (inactive)
Nc1nc(N)c2nc(CNc3ccc(C(=O)NC(CCCCNC(=O)c4ccccc4C(=O)O)C(=O)O)cc3)cnc2n1 (configuration not stated)	0.0738 µM (active)	0.01 µM (active)	0.173 µM (active)	> 100 µM (inactive)	0.01	0.01 µM (active)	3.61 µM (inactive)	0.01 µM (active)	> 100 µM (inactive)		0.01 µM (active)	0.01 µM (active)	0.01 µM (active)	> 100 µM (inactive)	0.01 µM (active)	> 100 µM (inactive)	0.01 µM (active)	0.01 µM (active)	0.01 µM (active)
COC1(OC)C[C@H](C)[C@@]23O[C@]24c2cc(O)c5c(c2N[C@H]3C#C/C=C\C#C[C@]14O)C(=O)c1ccccc1C5=O	0.00119 µM (active)	0.005 µM (active)	0.0245 µM (active)	0.005 µM (active)	0.005		0.005 µM (active)	0.005 µM (active)	0.0431 µM (active)	0.005 µM (active)	0.005 µM (active)	0.005 µM (active)	0.005 µM (active)	< 0.001 µM (active)	0.00703 µM (active)	0.00519 µM (active)	0.005 µM (active)	0.005 µM (active)	0.005 µM (active)

From ChEMBL document CHEMBL1201862, “PubChem BioAssay data set” (2004)
